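Following 48 hours of exposure in 96-well plates, responses at five concentrations were used to interpolate endpoints linearly. TGI is the concentration that stops growth completely.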
Key:
Assay in all cases: inhibition of tumour cell growth, NCI panel, 48 h
[1] = tested on: HT29 colon
[2] = tested on: OVCAR-4 ovarian
[3] = tested on: SK-MEL-5 melanoma
[4] = tested on: NCI-H460 lung
[5] = tested on: EKVX NSCLC
[6] = tested on: IGROV1 ovarian
[7] = tested on: LXFL 529 NSCLC
[8] = tested on: MOLT-4 leukemia
[9] = tested on: SK-MEL-2 melanoma
[10] = tested on: OVCAR-3 ovarian
[11] = tested on: NCI-H226 lung
[12] = tested on: OVCAR-8 ovarian
[13] = tested on: K-562 leukemia
[14] = tested on: MALME-3M melanoma
[15] = tested on: CCRF-CEM leukemia
[16] = tested on: MCF7 breast

| Structure (SMILES) | TGI [1] | TGI [2] | TGI [3] | TGI [4] | TGI [5] | TGI [6] | TGI [7] | TGI [8] | TGI [9] | TGI [10] | TGI [11] | TGI [12] | TGI [13] | TGI [14] | TGI [15] | TGI [16] |
| --- | --- | --- | --- | --- | --- | --- | --- | --- | --- | --- | --- | --- | --- | --- | --- | --- |
| CC(=O)n1cc(CC(C)O)c(=O)[nH]c1=O (centres undefined) | > 100 µM | > 100 µM | > 100 µM | > 100 µM | > 100 µM | > 100 µM | > 100 µM | > 100 µM | > 100 µM | > 100 µM | > 100 µM | > 100 µM | > 100 µM | – | – | – |
| NC(=O)c1ccccc1NC(=O)C(=O)Nc1n[nH]c(N)n1 | > 100 µM | > 100 µM | > 100 µM | > 100 µM | > 100 µM | > 100 µM | > 100 µM | > 100 µM | > 100 µM | > 100 µM | > 100 µM | > 100 µM | > 100 µM | > 100 µM | > 100 µM | – |
| O=C(Cc1nc2ccc(C(=O)c3ccccc3)cc2[nH]c1=O)C(=O)Nc1ccc(C(F)(F)F)cc1[N+](=O)[O-] | > 100 µM | > 100 µM | > 100 µM | > 100 µM | > 100 µM | > 100 µM | > 100 µM | > 100 µM | > 100 µM | > 100 µM | > 100 µM | > 100 µM | > 100 µM | > 100 µM | 91.8 µM | – |
| CC1(Br)S(=O)(=O)OCCOS1(=O)=O | > 100 µM | > 100 µM | > 100 µM | > 100 µM | > 100 µM | > 100 µM | > 100 µM | > 100 µM | > 100 µM | > 100 µM | > 100 µM | > 100 µM | > 100 µM | > 100 µM | > 100 µM | – |
| C=CC(Br)(CBr)CCC(Br)C(C)(C)Br (centres undefined) | 26.8 µM | 32.3 µM | 27.8 µM | 23.4 µM | – | 28.5 µM | 27.7 µM | 35.8 µM | 29.7 µM | – | 32.8 µM | 30.1 µM | 66 µM | 30.4 µM | – | – |
| COc1ccccc1NC(=O)CC(=O)n1nc(-c2ccccc2)c(N=Nc2ccccc2[N+](=O)[O-])c1-c1ccccc1 | > 100 µM | > 100 µM | > 100 µM | > 100 µM | > 100 µM | > 100 µM | > 100 µM | > 100 µM | > 100 µM | > 100 µM | > 100 µM | > 100 µM | > 100 µM | > 100 µM | > 100 µM | – |
| Cc1ccc(SC2C(C)(C)N(C(C)C)P2(=O)N(C(C)C)C(C)C)cc1 (centres undefined) | > 100 µM | > 100 µM | > 100 µM | > 67.6 µM | 97.3 µM | > 100 µM | > 100 µM | > 59.3 µM | > 100 µM | > 100 µM | > 100 µM | > 100 µM | > 52.4 µM | > 100 µM | > 55.7 µM | – |
| CCOC(=O)c1ncn2c1[nH]c(=O)c1ccccc12 | > 100 µM | > 100 µM | > 100 µM | > 100 µM | > 100 µM | > 100 µM | > 100 µM | > 100 µM | > 100 µM | > 100 µM | > 100 µM | > 100 µM | > 100 µM | > 100 µM | > 100 µM | – |
| CC(=O)C(CN(C)Cc1ccccc1)C(c1ccccc1)c1c(O)c2ccccc2oc1=O (centres undefined) | > 100 µM | > 100 µM | > 100 µM | > 100 µM | > 100 µM | > 100 µM | > 100 µM | > 100 µM | > 100 µM | – | 99.5 µM | > 100 µM | > 100 µM | > 100 µM | > 100 µM | – |
| OC1=CN=C(C2CC2)Oc2ccccc21 | > 100 µM | > 100 µM | > 100 µM | > 100 µM | > 100 µM | > 100 µM | > 100 µM | > 100 µM | > 100 µM | > 100 µM | > 100 µM | > 100 µM | > 100 µM | > 100 µM | > 100 µM | – |
| Cc1ccc(S(=O)(=O)N/N=C2/C3C(CC2(C)C)C2(C)CCCC3(C)C2O)cc1 (centres undefined) | 39.6 µM | 43.3 µM | 28.8 µM | 37.7 µM | > 100 µM | 69.8 µM | – | 57.6 µM | 45.8 µM | > 100 µM | 35.3 µM | > 100 µM | > 100 µM | 45.4 µM | 59.4 µM | 43.2 µM |
